A word on the IC50: it is the concentration needed to halve the response being measured.

Where a SMILES comes first, the peptide text is derived from it. [ ]: non-standard residue; d: D form. Bpa = N[C@@H](Cc1ccc(C(=O)c2ccccc2)cc1)C(=O)O

The values that follow come from article PMC6222646, “HIV-1 Integrase-Targeted Short Peptides Derived from a Viral Protein R Sequence” (Molecules : A Journal of Synthetic Chemistry and Natural …, 2018).

Assay [1] has as its target T1, HIV-1 integrase (IN) (Human immunodeficiency virus type 1 group M subtype B, UniProt P12497). The experiment in a line: In vitro integrase catalytic assay, 3'-processing (3'-P). The format is biochemical. As to conditions: 400 nM IN, 20 nM 32P-labeled 21T/21B DNA, 37 °C, 2 h. The method, then: (§1) IN reactions were performed as previously described. […] Reactions were performed at 37 °C (2 h) and quenched by the addition of an equal volume of loading buffer (formamide containing 1% sodium dodecyl sulfate, 0.25% bromophenol blue, and xylene cyanol). Reaction products were separated in 16% polyacrylamide denaturing sequencing gels. Dried gels were visualized using a Typhoon 8600 instrument (GE Healthcare, Chicago, IL, USA). Densitometric analyses were performed using ImageQuant 5.1 software (GE Healthcare, Chicago, IL, USA). Data analyses (linear regression, 50% inhibitory concentration [IC50] determination, standard deviation [SD]) were performed from at least 3 independent determinations using Prism 5.0c software from GraphPad (La Jolla, CA, USA). To assay 3′-P inhibitory potency, reactions were carried out with [γ-^32P]-labeled full-length oligonucleotide 21T ([…]) annealed to the complementary oligonucleotide 21B ([…]). Formation of the shorter processed 19T products was monitored and quantified to assess enzyme performance and inhibitor potency. The ST reactions were carried out with the [γ-^32P]-labeled pre-cleaved oligonucleotide 19T ([…]) annealed to the complementary oligonucleotide 21B ([…]) and formation of integration products (longer and slower migrating than the starting 19T substrate) was monitored to assess enzyme performance and inhibitor potency.

For assay [2], the target named is T1, HIV-1 integrase (IN). The experiment in a line: In vitro integrase catalytic assay, strand transfer (ST). The settings on record: 400 nM IN, 20 nM 32P-labeled pre-cleaved 19T/21B DNA, 37 °C, 2 h. The format is biochemical. The method, then: as §1
In another assay the test system is IN. More on the design: method as in PMID 17490682. As to conditions: read-out: IN ST-inhibitory potency IC50; cited from earlier work.

Regarding `CC[C@H](C)[C@H](NC(=O)[C@H](CCCNC(=N)N)NC(=O)[C@H](Cc1ccc(C(=O)c2ccccc2)cc1)NC(=O)[C@H](Cc1c[nH]cn1)NC(=O)[C@@H](NC(=O)[C@@H](N)Cc1ccccc1)[C@@H](C)CC)C(=O)NCC(=O)O` [Peptide 11a, FIHBRIG] (H-FIH[Bpa]RIG-OH), the IC50 against HIV-1 integrase (IN) [1] was found to be 34 ± 6 µM; against HIV-1 integrase (IN) [2], 4.2 ± 0.7 µM.
On to `CC[C@H](C)[C@H](NC(=O)[C@H](CCCNC(=N)N)NC(=O)[C@H](Cc1ccccc1)NC(=O)[C@H](Cc1ccc(C(=O)c2ccccc2)cc1)NC(=O)[C@@H](NC(=O)[C@@H](N)Cc1ccccc1)[C@@H](C)CC)C(=O)NCC(=O)O` [Peptide 12a, FIBFRIG] (H-FI[Bpa]FRIG-OH), for which the IC50 against HIV-1 integrase (IN) [1] stood at 6.5 ± 0.9 µM; on HIV-1 integrase (IN) [2] it was 2.2 ± 0.6 µM.
For `CC[C@H](C)[C@H](NC(=O)[C@H](CCCNC(=N)N)NC(=O)[C@H](Cc1ccccc1)NC(=O)[C@H](Cc1c[nH]cn1)NC(=O)[C@H](Cc1ccc(C(=O)c2ccccc2)cc1)NC(=O)[C@@H](N)Cc1ccccc1)C(=O)NCC(=O)O` [Peptide 13a, FBHFRIG] (H-F[Bpa]HFRIG-OH), in that order: 37 ± 5 µM and 20 ± 3 µM.
For `CC[C@H](C)[C@H](NC(=O)[C@H](CCCNC(=N)N)NC(=O)[C@H](Cc1ccccc1)NC(=O)[C@H](Cc1c[nH]cn1)NC(=O)[C@@H](NC(=O)[C@@H](N)Cc1ccc(C(=O)c2ccccc2)cc1)[C@@H](C)CC)C(=O)NCC(=O)O` [Peptide 14a, BIHFRIG] (H-[Bpa]IHFRIG-OH), in that order: 7.2 ± 1.2 µM and 2.1 ± 0.3 µM.
Turning to QQLLFIHFRIGCQHS [Vpr (65–79)], in the assay with IN, the IC50 is 14 µM.
